Legend:
[1] = target: T1, Indoleamine 2,3-dioxygenase 1 (Homo sapiens, UniProt P14902); assay: Inhibition of recombinant human IDO1 expressed in bacterial expression system using L-Tryptophan as substrate after 25 mins in absence of GSH and presence of tween20 by fluorescence assay
Target sequence in this assay (P14902 whole entry): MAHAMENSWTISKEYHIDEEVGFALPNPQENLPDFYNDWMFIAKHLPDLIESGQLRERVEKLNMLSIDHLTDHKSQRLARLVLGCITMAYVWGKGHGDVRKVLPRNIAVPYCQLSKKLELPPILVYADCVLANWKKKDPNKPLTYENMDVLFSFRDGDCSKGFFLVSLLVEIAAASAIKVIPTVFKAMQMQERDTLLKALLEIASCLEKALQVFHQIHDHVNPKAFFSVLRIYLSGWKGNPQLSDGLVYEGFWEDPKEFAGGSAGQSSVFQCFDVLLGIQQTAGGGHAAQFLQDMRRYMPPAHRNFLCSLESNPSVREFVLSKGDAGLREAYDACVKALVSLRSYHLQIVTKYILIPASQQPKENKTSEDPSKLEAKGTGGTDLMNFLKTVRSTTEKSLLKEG

[2] = target: Indoleamine 2,3-dioxygenase 1 (Homo sapiens, UniProt P14902, S167A)
Homo sapiens = species on record: Homo sapiens; assay: Selectivity ratio of IC50 for recombinant human IDO1 S167A mutant expressed in Escherichia coli SG13009(pREP4) to IC50 for recombinant human IDO1 expressed in bacterial expression system
[3] = target: T1, Indoleamine 2,3-dioxygenase 1; assay: Inhibition of full length recombinant human His-tagged IDO1 expressed in mouse LLTC cells using L-tryptophan as substrate after 24 hrs; assay type: cell-based
Target sequence in this assay (P14902 whole entry): as above

[4] = Cytotoxicity against mouse LLTC cells assessed as reduction in cell viability after 24 hrs by MTT assay; assay type: cell-based; details: read-out: LC50
[5] = test system: Indoleamine 2,3-dioxygenase 1 (Homo sapiens), P14902 [S167A]; assay: Inhibition of recombinant human IDO1 S167A mutant expressed in Escherichia coli SG13009(pREP4) at 20 uM using L-Tryptophan as substrate after 25 mins by fluorescence assay relative to control
Chain of Indoleamine 2,3-dioxygenase 1 (Homo sapiens), P14902 [S167A] (P14902 whole entry S167A): as the sequence (P14902 whole entry) above, with S167A counted along it

[6] = target: T1, Indoleamine 2,3-dioxygenase 1; assay: Inhibition of recombinant human IDO1 expressed in bacterial expression system using L-Tryptophan as substrate after 25 mins in absence of GSH and tween20 by fluorescence assay
Target sequence in this assay (P14902 whole entry): as the sequence (P14902 whole entry) above

[7] = target: T1, Indoleamine 2,3-dioxygenase 1; assay: Inhibition of recombinant human IDO1 expressed in bacterial expression system using L-Tryptophan as substrate after 25 mins in presence of GSH and tween20 by fluorescence assay
Target sequence in this assay (P14902 whole entry): as above

[8] = target: T1, Indoleamine 2,3-dioxygenase 1; details: 80 uM
Target sequence in this assay (P14902 whole entry, looked up): as the sequence (P14902 whole entry) above

[9] = target: T1, Indoleamine 2,3-dioxygenase 1; assay: Inhibition of recombinant human IDO1 expressed in bacterial expression system at 350 uM using L-Tryptophan as substrate after 25 mins by fluorescence assay relative to control
Target sequence in this assay (P14902 whole entry, looked up): as the sequence (P14902 whole entry) above

[10] = target: T1, Indoleamine 2,3-dioxygenase 1; assay: Inhibition of recombinant human IDO1 expressed in bacterial expression system at 100 uM using L-Tryptophan as substrate after 25 mins by fluorescence assay relative to control
Target sequence in this assay (P14902 whole entry, looked up): as the sequence (P14902 whole entry) above

[11] = target: T1, Indoleamine 2,3-dioxygenase 1; assay: Inhibition of recombinant human IDO1 expressed in bacterial expression system at 200 uM using L-Tryptophan as substrate after 25 mins by fluorescence assay relative to control
Target sequence in this assay (P14902 whole entry, looked up): as the sequence (P14902 whole entry) above

[12] = target: T1, Indoleamine 2,3-dioxygenase 1; assay: Inhibition of recombinant human IDO1 expressed in bacterial expression system at 400 uM using L-Tryptophan as substrate after 25 mins by fluorescence assay relative to control
Target sequence in this assay (P14902 whole entry, looked up): as the sequence (P14902 whole entry) above

[13] = target: T1, Indoleamine 2,3-dioxygenase 1; assay: Inhibition of recombinant human IDO1 expressed in bacterial expression system at 250 uM using L-Tryptophan as substrate after 25 mins by fluorescence assay relative to control
Target sequence in this assay (P14902 whole entry, looked up): as the sequence (P14902 whole entry) above

[14] = target: T1, Indoleamine 2,3-dioxygenase 1; details: 30 uM
[15] = test system: Indoleamine 2,3-dioxygenase 1 (Homo sapiens), P14902 [C129A]; assay: Inhibition of recombinant human IDO1 C129A mutant expressed in Escherichia coli SG13009(pREP4) at 20 uM using L-Tryptophan as substrate after 25 mins by fluorescence assay relative to control
Chain of Indoleamine 2,3-dioxygenase 1 (Homo sapiens), P14902 [C129A] (P14902 whole entry C129A): as the sequence (P14902 whole entry) above, with C129A counted along it

[16] = target: Indoleamine 2,3-dioxygenase 1 (Homo sapiens, UniProt P14902, C129A); assay: Inhibition of recombinant human IDO1 C129A mutant expressed in Escherichia coli SG13009(pREP4) using L-Tryptophan as substrate after 25 mins by fluorescence assay
Chain of Indoleamine 2,3-dioxygenase 1 (Homo sapiens, UniProt P14902, C129A) (P14902 whole entry C129A): as the sequence (P14902 whole entry) above, with C129A counted along it

[17] = target: T1, Indoleamine 2,3-dioxygenase 1; assay: Inhibition of recombinant human IDO1 expressed in bacterial expression system at 50 uM using L-Tryptophan as substrate after 25 mins by fluorescence assay relative to control
[18] = target: T1, Indoleamine 2,3-dioxygenase 1; assay: Inhibition of recombinant human IDO1 expressed in bacterial expression system at 150 uM using L-Tryptophan as substrate after 25 mins by fluorescence assay relative to control
[19] = target: T1, Indoleamine 2,3-dioxygenase 1; assay: Irreversible inhibition of recombinant human IDO1 expressed in bacterial expression system at 3 uM using L-Tryptophan as substrate after preincubated for 90 mins followed by 100 fold compound dilution measured after 15 mins by fluorescence assay relative to control
[20] = test system: Indoleamine 2,3-dioxygenase 1 (Homo sapiens), P14902 [S167A]; assay: Inhibition of recombinant human IDO1 S167A mutant expressed in Escherichia coli SG13009(pREP4) at 400 uM using L-Tryptophan as substrate after 25 mins by fluorescence assay relative to control
[21] = target: T1, Indoleamine 2,3-dioxygenase 1; details: 50 uM

Chain of Indoleamine 2,3-dioxygenase 1 (Homo sapiens, UniProt P14902, S167A) (P14902 whole entry S167A): as the sequence (P14902 whole entry) above, with S167A counted along it

SMILES	IC50 [1]	IC50 [2]	Ratio IC50 (Homo sapiens)	also measured
COc1ccc(C2=[N+]([O-])c3ccccc3C2=O)cc1	1.6 µM	63 µM	39	IC50 [3]: 2.3 µM; CC50 at 24 h [4]: 42 µM
Oc1ccccc1-c1nc2c3ccccc3c3ccccc3c2[nH]1	3.3 to 9 µM	26 to 980 µM	8 to 109	inhibition [5]: 2%; IC50 [6]: 7.8 µM; IC50 [7]: 4.9 µM; IC50 [3]: 52 µM; CC50 at 24 h [4]: > 100 µM; inhibition [8]: < 25%
Fc1ccccc1-c1nc2c3ccccc3c3ccccc3c2[nH]1	231 µM	108 µM	0.5	–
COc1ccc(C2=Nc3ccccc3C2=O)cc1	–	–	–	inhibition [9]: 5%
COc1ccc2c(c1)c1ccc3c(c1n2C)C(=O)C=CC3=O	25.5 µM	1000 µM	39.3	inhibition [5]: -5%
CC(=O)NC1=C(c2ccccc2)C(=O)c2ccccc21	–	–	–	inhibition [10]: 14%
O=C1c2ccccc2CC1c1ccccc1 (stereo not drawn)	–	–	–	inhibition [11]: 21%
Oc1cccc(-c2nc3c4ccccc4c4ccccc4c3[nH]2)c1	112 µM	173 µM	2	–
CC1=NC(SCc2ccc(Cl)cc2Cl)=NC(=O)C1	–	–	–	inhibition [12]: -8%; IC50 [3]: 217 µM; CC50 at 24 h [4]: > 125 µM
Oc1ccccc1-c1nc2ccccc2[nH]1	–	–	–	inhibition [12]: 1%
O=[N+]([O-])c1ccccc1NCSc1ccc(Cl)cc1	63 µM	–	–	IC50 [3]: 6.3 µM; CC50 at 24 h [4]: 52 µM
CC1=CC(C)(C)NC(=S)N1c1cccc2cc(S(N)(=O)=O)ccc12	27.6 µM	1000 µM	36.2	inhibition [5]: -8%
COC(=O)c1cc(F)c2nonc2c1Nc1ccc(I)cc1F	–	–	–	inhibition [13]: 3%
Cn1c2ccccc2c2ccc3c(c21)C(=O)C=CC3=O	42.5 µM	1000 µM	23.5	inhibition [5]: -2%
COc1c(NC(C)=O)c2ccccc2c2ccccc12	35.6 µM	1000 µM	28.1	inhibition [5]: -9%
Cc1ccccc1-c1nc2c3ccccc3c3ccccc3c2[nH]1	512 µM	464 µM	1	–
COc1c(O)ccc2c1CN1CCc3cc4c(cc3C1C2)OCO4 (stereo not drawn)	35.6 µM	1000 µM	28.1	–
O=[N+]([O-])c1ccc(Sc2cccc[n+]2[O-])c2nonc12	24 to 60 µM	108 to 1000 µM	5 to 16.7	inhibition [5]: -1%
COC12C(COC(N)=O)C3=C(C(=O)C(C)=C(N)C3=O)N1CC1C2N1C (stereo not drawn)	15.7 µM	1000 µM	63.6	inhibition [5]: -4%

SMILES	IC50 [1]	IC50 [2]	Ratio IC50 (Homo sapiens)	also measured
O=C(O)c1cc(F)c2nonc2c1Nc1ccc(I)cc1F	43 µM	47 µM	1	IC50 [3]: 168 µM; CC50 at 24 h [4]: > 233 µM
C=Cc1cc(OC)c2c(c1)c(=O)oc1c2cc(OC)c2c(O)ccc([C@@H]3O[C@H](C)[C@H](O)[C@@](C)(O)[C@H]3O)c21	22.6 µM	230 µM	10.2	inhibition [5]: 8%
Clc1ccc(SCNc2ccccc2Cl)cc1	4.5 µM	0.87 µM	0.2	IC50 [6]: 5.5 µM; IC50 [7]: 1.5 µM; IC50 [3]: 6.3 µM; CC50 at 24 h [4]: 40 µM; inhibition [14]: < 25%
O=[N+]([O-])c1ccc(Nc2ccc(Br)cc2)c2nonc12	68 µM	–	–	–
O=[N+]([O-])c1ccc(Sc2ccc(F)cc2)c2nonc12	8.8 µM	17 µM	2	IC50 [3]: 4.6 µM; CC50 at 24 h [4]: > 50 µM
NNC(=O)CNc1cccc(Br)c1	1000 µM	–	–	inhibition [15]: 30.8%; IC50 [16]: 44.9 µM
CC(=O)OC1=C(c2ccccc2)C(=O)c2ccccc21	266 µM	–	–	–
O=C1c2ccccc2C(=O)C1c1ccccc1	–	–	–	inhibition [12]: 20%
Cc1ccc2c(c1)c1ccc3c(c1n2C)C(=O)C=CC3=O	46.7 µM	1000 µM	21.4	inhibition [5]: -4%
COc1ccc(C2=C(N)c3ccccc3C2=O)cc1	–	–	–	inhibition [17]: 13%
O=c1c(O)cccc2cc(O)c(O)c(O)c12 [PURPUROGALLIN]	60 µM	1000 µM	16.7	inhibition [5]: -4%
O/N=C1\c2ccccc2NC1c1ccccc1 (stereo not drawn)	510 µM	366 µM	1	–
c1ccc2c(c1)Nc1ccncc1S2	422 µM	–	–	inhibition [15]: 38.8%; IC50 [16]: 31.6 µM
COc1ccc(-c2cc3ccccc3[nH]2)cc1	–	–	–	inhibition [11]: 16%
Cc1cc(I)ccc1Nc1cc2nonc2cc1C(=O)O	41 µM	42 µM	1	–
Cc1ccc(NCSc2ccc(Cl)cc2)cc1	–	–	–	inhibition [13]: -1%
CCC1=C(c2ccccc2)C(=O)c2ccccc21	–	–	–	inhibition [18]: 20%
O=C1C(c2ccccc2)=Nc2ccccc21	–	–	–	inhibition [9]: 9%; IC50 [3]: 114 µM; CC50 at 24 h [4]: 220 µM
O=C1C(c2ccccc2)=[N+]([O-])c2ccccc21	0.87 µM	3 µM	3	IC50 [3]: 2.3 µM; CC50 at 24 h [4]: 14 µM

SMILES	IC50 [1]	IC50 [2]	Ratio IC50 (Homo sapiens)	also measured
Nc1nonc1C(=NO)Nc1ccc(F)c(Cl)c1	–	–	–	CC50 at 24 h [4]: > 5 µM
CC[C@@H](CNc1cc(OC)cc2cccnc12)NC1CCCCC1	54.1 µM	1000 µM	18.5	inhibition [5]: -6%
NC1=C(c2ccccc2)C(=O)c2ccccc21	–	–	–	inhibition [10]: 14%
Sc1ccc(Cl)cc1	7.9 µM	3.5 µM	0.5	IC50 [3]: 9.2 µM; CC50 at 24 h [4]: 35 µM
O=[N+]([O-])c1cccc2nsnc12	320 µM	614 µM	2	–
CCn1c2ccccc2nc2cc3c(cc21)c(Cl)c(=O)c1ccccc13	42.5 µM	980 µM	23.1	inhibition [5]: 2%
O=[N+]([O-])c1ccc(NCSc2ccc(Cl)cc2)cc1	0.8 µM	0.1 µM	0.125	CC50 at 24 h [4]: 40 µM
c1ccc(NCCSc2nc3ccccc3s2)cc1	115 µM	–	–	inhibition [15]: 70.8%; IC50 [16]: 8.2 µM
c1ccc(-c2c[nH]cn2)cc1	–	–	–	CC50 at 24 h [4]: > 1150 µM
CC(=O)OCCn1c2nc(=O)[nH]c(=O)c-2nc2cc(C)c(C)cc21	31.3 µM	1000 µM	32	inhibition [5]: -8%
c1ccc(-c2nc3c4ccccc4c4ccccc4c3[nH]2)cc1	–	–	–	inhibition [13]: 8%
Cc1ccccc1C1=[N+]([O-])c2ccccc2C1=O	0.46 µM	2.2 µM	5	inhibition [19]: > 75%; IC50 [3]: 3.9 µM; CC50 at 24 h [4]: 12 µM
Oc1ccc(-c2nc3c4ccccc4c4ccccc4c3[nH]2)cc1	522 µM	–	> 2	inhibition [20]: 14%
Cc1ccc([S+]([O-])c2ccc([N+](=O)[O-])c3nonc23)cc1 (stereo not drawn)	12 µM	0.66 µM	0.055	IC50 [6]: 14 µM; IC50 [7]: 2.1 µM; IC50 [3]: 15 µM; CC50 at 24 h [4]: 29 µM; inhibition [21]: > 75%
COc1cc2c(cc1OC)[N+]([O-])=C(c1ccccc1)C2=O	4.1 to 60 µM	206 to 1000 µM	16.7 to 50	inhibition [5]: 0%; IC50 [6]: 9.3 µM; IC50 [7]: 1.5 µM; IC50 [3]: 4.3 µM; CC50 at 24 h [4]: 25 µM
COc1ccc(Nc2ccc([N+](=O)[O-])c3nonc23)cc1	96 µM	–	–	–
Cc1cccc2c1c1ccc3c(c1n2C)C(=O)C=CC3=O	35.6 µM	1000 µM	28.1	inhibition [5]: -5%
Cc1ccccc1-c1nc2ccccc2[nH]1	–	–	–	inhibition [12]: -2%
Cc1cc(I)ccc1Nc1cc2no[n+]([O-])c2cc1C(=O)O	23 µM	–	> 44	inhibition [20]: 2%

Reference: ChEMBL document CHEMBL4007389, “Discovery and evaluation of inhibitors to the immunosuppressive enzyme indoleamine 2,3-dioxygenase 1 (IDO1): Probing the active site-inhibitor interactions” (Eur J Med Chem, 2017)
